# The supplement of paper PMC11150407
# Legend:
# Test in all cases: area under dose-response viability curve (log dose) (AUC (arbitrary)); higher = less sensitive
# Settings in all cases: 72 h
# Vincristine = compound: CC[C@]1(O)C[C@H]2CN(CCc3c([nH]c4ccccc34)[C@@](C(=O)OC)(c3cc4c(cc3OC)N(C=O)[C@H]3[C@@](O)(C(=O)OC)[C@H](OC(C)=O)[C@]5(CC)C=CCN6CC[C@]43[C@@H]65)C2)C1 [Vincristine]
# Description: (§1)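 Primary AML blasts from patients (3q26 EVI1-high and other AML) were treated for 72 h with a dose series of each drug. Viability was measured with an ATP-based CellTiter-Glo assay. The area under the curve of the log-transformed dose-response data was computed in GraphPad Prism; a lower AUC means greater sensitivity.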
# AR-42 = compound: CC(C)[C@H](C(=O)Nc1ccc(C(=O)NO)cc1)c1ccccc1 [AR-42]
# Description: as §1
# Belinostat = compound: O=C(/C=C/c1cccc(S(=O)(=O)Nc2ccccc2)c1)NO [Belinostat]
# Description: as §1
# Methotrexate = compound: CN(Cc1cnc2nc(N)nc(N)c2n1)c1ccc(C(=O)N[C@@H](CCC(=O)O)C(=O)O)cc1 [Methotrexate]
# Description: as §1
# Entinostat = compound: Nc1ccccc1NC(=O)c1ccc(CNC(=O)OCc2cccnc2)cc1 [Entinostat]
# Description: as §1
# Daunorubicine = compound: COc1cccc2c1C(=O)c1c(O)c3c(c(O)c1C2=O)C[C@@](O)(C(C)=O)C[C@@H]3O[C@H]1C[C@H](N)[C@H](O)[C@H](C)O1 [Daunorubicine]
# Description: as §1
test system,measurement,setting,value
PR#032 (EVI1 status: EVI1Low),area under dose-response viability curve,Vincristine,92.1
same,area under dose-response viability curve,AR-42,170
same,area under dose-response viability curve,Belinostat,148
same,area under dose-response viability curve,Methotrexate,258
same,area under dose-response viability curve,Entinostat,144
same,area under dose-response viability curve,Daunorubicine,58
PR#004 (EVI1 status: EVI1High),area under dose-response viability curve,Vincristine,171
same,area under dose-response viability curve,AR-42,78.8
same,area under dose-response viability curve,Belinostat,121
same,area under dose-response viability curve,Methotrexate,237
same,area under dose-response viability curve,Entinostat,84.7
same,area under dose-response viability curve,Daunorubicine,63.5
PR#007 (EVI1 status: EVI1High),area under dose-response viability curve,Vincristine,186
same,area under dose-response viability curve,AR-42,163
same,area under dose-response viability curve,Belinostat,157
same,area under dose-response viability curve,Methotrexate,245
same,area under dose-response viability curve,Entinostat,172
same,area under dose-response viability curve,Daunorubicine,110
PR#012 (EVI1 status: EVI1Low),area under dose-response viability curve,Vincristine,89.8
same,area under dose-response viability curve,AR-42,131
same,area under dose-response viability curve,Belinostat,192
same,area under dose-response viability curve,Methotrexate,218
same,area under dose-response viability curve,Entinostat,139
same,area under dose-response viability curve,Daunorubicine,120
PR#002 (EVI1 status: EVI1High),area under dose-response viability curve,Vincristine,179
same,area under dose-response viability curve,AR-42,132
same,area under dose-response viability curve,Belinostat,179
same,area under dose-response viability curve,Methotrexate,232
same,area under dose-response viability curve,Entinostat,145
same,area under dose-response viability curve,Daunorubicine,110
PR#015 (EVI1 status: EVI1Low),area under dose-response viability curve,Vincristine,128
same,area under dose-response viability curve,AR-42,149
same,area under dose-response viability curve,Belinostat,227
same,area under dose-response viability curve,Methotrexate,248
same,area under dose-response viability curve,Entinostat,145
same,area under dose-response viability curve,Daunorubicine,37
PR#011 (EVI1 status: EVI1Low),area under dose-response viability curve,Vincristine,196
same,area under dose-response viability curve,AR-42,188
same,area under dose-response viability curve,Belinostat,209
same,area under dose-response viability curve,Methotrexate,226
same,area under dose-response viability curve,Entinostat,200
same,area under dose-response viability curve,Daunorubicine,132
PR#037 (EVI1 status: EVI1Low),area under dose-response viability curve,Vincristine,113
same,area under dose-response viability curve,AR-42,126
same,area under dose-response viability curve,Belinostat,127
same,area under dose-response viability curve,Methotrexate,213
same,area under dose-response viability curve,Entinostat,106
same,area under dose-response viability curve,Daunorubicine,83.7
PR#006 (EVI1 status: EVI1High),area under dose-response viability curve,Vincristine,136
same,area under dose-response viability curve,AR-42,120
same,area under dose-response viability curve,Belinostat,138
same,area under dose-response viability curve,Methotrexate,248
same,area under dose-response viability curve,Entinostat,120
same,area under dose-response viability curve,Daunorubicine,57.7
PR#018 (EVI1 status: EVI1Low),area under dose-response viability curve,Vincristine,204
same,area under dose-response viability curve,AR-42,184
same,area under dose-response viability curve,Belinostat,189
same,area under dose-response viability curve,Methotrexate,236
same,area under dose-response viability curve,Entinostat,211
same,area under dose-response viability curve,Daunorubicine,101
PR#020 (EVI1 status: EVI1Low),area under dose-response viability curve,Vincristine,128
same,area under dose-response viability curve,AR-42,130
same,area under dose-response viability curve,Belinostat,246
same,area under dose-response viability curve,Methotrexate,248
same,area under dose-response viability curve,Entinostat,182
same,area under dose-response viability curve,Daunorubicine,61.9
PR#033 (EVI1 status: EVI1Low),area under dose-response viability curve,Vincristine,147
same,area under dose-response viability curve,AR-42,154
same,area under dose-response viability curve,Belinostat,178
same,area under dose-response viability curve,Methotrexate,226
same,area under dose-response viability curve,Entinostat,183
same,area under dose-response viability curve,Daunorubicine,36.2
PR#021 (EVI1 status: EVI1Low),area under dose-response viability curve,Vincristine,195
same,area under dose-response viability curve,AR-42,189
same,area under dose-response viability curve,Belinostat,202
same,area under dose-response viability curve,Methotrexate,241
same,area under dose-response viability curve,Entinostat,215
same,area under dose-response viability curve,Daunorubicine,122
PR#026 (EVI1 status: EVI1Low),area under dose-response viability curve,Vincristine,90.2
same,area under dose-response viability curve,AR-42,155
same,area under dose-response viability curve,Belinostat,189
same,area under dose-response viability curve,Methotrexate,241
same,area under dose-response viability curve,Entinostat,205
same,area under dose-response viability curve,Daunorubicine,85.1
PR#014 (EVI1 status: EVI1Low),area under dose-response viability curve,Vincristine,198
same,area under dose-response viability curve,AR-42,128
same,area under dose-response viability curve,Belinostat,195
same,area under dose-response viability curve,Methotrexate,248
same,area under dose-response viability curve,Entinostat,133
same,area under dose-response viability curve,Daunorubicine,63.9
PR#008 (EVI1 status: EVI1High),area under dose-response viability curve,Vincristine,116
same,area under dose-response viability curve,AR-42,55.7
same,area under dose-response viability curve,Belinostat,81.8
same,area under dose-response viability curve,Methotrexate,195
same,area under dose-response viability curve,Entinostat,82.3
same,area under dose-response viability curve,Daunorubicine,15
PR#017 (EVI1 status: EVI1Low),area under dose-response viability curve,Vincristine,204
same,area under dose-response viability curve,AR-42,163
same,area under dose-response viability curve,Belinostat,160
same,area under dose-response viability curve,Methotrexate,237
same,area under dose-response viability curve,Entinostat,191
same,area under dose-response viability curve,Daunorubicine,89.5
